{
  "source": "patent US20110274651A1",
  "about": "“Noscapine and Noscapine Analogs and Their Use in treating Infectious Diseases by Tubulin Binding Inhibition” (priority 2008, published 2011)",
  "key": {"vaccinia virus": {"tested_on": "vaccinia virus", "assay": "Plaque assay of vaccinia virus in BSC-40 cells", "assay_type": "cell-based"}, "tubulin [1]": {"target": "tubulin", "conditions": "literature values, refs [18], [12], [43]; read-out: dissociation constant (Kd) binding to tubulin; cited from earlier work"}, "tubulin [2]": {"target": "T1, tubulin", "T1 construct": "other: double reciprocal plots; 0-100 μM ligand, 2 μM tubulin, 45 min at", "assay": "Tubulin binding assay (fluorescence titration, quenching of intrinsic tubulin fluorescence)", "set-up": "species or system Mammalian", "conditions": "double reciprocal plots; 0-100 μM ligand, 2 μM tubulin, 45 min at 37° C.; read-out: dissociation constant (Kd) binding to tubulin"}},
  "note": "Like-named read-outs stand apart in the source and are kept apart here.",
  "data": [
    {"smiles": "COc1ccc2c(c1OC)C(=O)O[C@@H]2[C@H]1c2c(c(Br)c3c(c2OC)OCO3)CCN1C", "note": "[9-Br-nos, (S)-6,7-dimethoxy-3-((R)-4-methoxy-6-methyl-9-bromo-5,6,7,8-tetrahydro-[1,3]dioxolo[4,5-g]isoquinolin-5-yl)isobenzofuran-1(3H)-one]", "values": [
      {"measurement": "spread of vaccinia virus in BSC-40 cells", "setting": "vaccinia virus", "result": "inhibited"},
      {"measurement": "prevention of infection", "setting": "vaccinia virus; 25 uM in 0.1% DMSO", "result": "does not prevent infection"},
      {"measurement": "plaque appearance", "setting": "vaccinia virus; 25 uM in 0.1% DMSO, FIG. 1", "result": "only small “pinpoint” plaques are evident"},
      {"measurement": "Kd", "setting": "tubulin [1]", "result": "54 ± 9.1", "unit": "µM"}
    ]},
    {"smiles": "COc1ccc2c(c1OC)C(=O)O[C@@H]2[C@H]1c2c(c(Cl)c3c(c2OC)OCO3)CCN1C", "note": "[9-Cl-nos]", "values": [
      {"measurement": "Kd", "setting": "tubulin [1]", "result": "40 ± 8", "unit": "µM"}
    ]},
    {"smiles": "COc1ccc2c(c1OC)C(=O)O[C@@H]2[C@H]1c2c(c(F)c3c(c2OC)OCO3)CCN1C", "note": "[9-F-nos, (S)-6,7-dimethoxy-3-((R)-4-methoxy-6-methyl-9-fluoro-5,6,7,8-tetrahydro-[1,3]dioxolo[4,5-g]isoquinolin-5-yl)isobenzofuran-1(3H)-one]", "values": [
      {"measurement": "Kd", "setting": "tubulin [2]", "result": "81 ± 8", "unit": "µM"}
    ]},
    {"smiles": "COc1ccc2c(c1OC)C(=O)O[C@@H]2[C@H]1c2c(c(I)c3c(c2OC)OCO3)CCN1C", "note": "[9-I-nos, (S)-6,7-dimethoxy-3-((R)-4-methoxy-6-methyl-9-iodo-5,6,7,8-tetrahydro-[1,3]dioxolo[4,5-g]isoquinolin-5-yl)isobenzofuran-1(3H)-one]", "values": [
      {"measurement": "Kd", "setting": "tubulin [2]", "result": "22 ± 4", "unit": "µM"}
    ]},
    {"smiles": "COc1ccc2c(c1OC)C(=O)O[C@@H]2[C@H]1c2c(cc3c(c2OC)OCO3)CCN1C", "note": "[noscapine, (S)-6,7-dimethoxy-3-((R)-4-methoxy-6-methyl-5,6,7,8-tetrahydro-[1,3]dioxolo[4,5-g]isoquinolin-5-yl)isobenzofuran-1(3H)-one]", "values": [
      {"measurement": "Kd", "setting": "tubulin [1]", "result": "144 ± 2.8", "unit": "µM"}
    ]}
  ]
}
